Data from article PMC12670405, “Second-Generation AURKA-Targeting PROTACs: Structural Optimization toward in Vivo Degradation in Neuroblastoma” (Journal of Medicinal Chemistry, 2025).

Experiments:
Experiment in all cases: KINOMEscan scanMAX
Assay type in all cases: binding
Conditions in all cases: read-out: Percent Control
ACVR1 = target: T1, ACVR1 (Homo sapiens, UniProt Q04771)
T1 construct: purchased Eurofins Discovery (DiscoverX KINOMEscan scanMAX)
Procedure: (§1) The kinome-wide binding assay was performed by Eurofins Discovery using the scanMAX screening platform. More information can be found on the Eurofins Discovery Web site.

ACVR2B = target: T2, ACVR2B (Homo sapiens, UniProt Q13705)
T2 construct: purchased Eurofins Discovery (DiscoverX KINOMEscan scanMAX)
Procedure: as §1

ALK = target: T3, ALK (Homo sapiens, UniProt Q9UM73)
T3 construct: purchased Eurofins Discovery (DiscoverX KINOMEscan scanMAX)
Procedure: as §1

BTK = target: T4, BTK (Homo sapiens, UniProt Q06187)
T4 construct: purchased Eurofins Discovery (DiscoverX KINOMEscan scanMAX)
Procedure: as §1

CAMK1 = target: T5, CAMK1 (Homo sapiens, UniProt Q14012)
T5 construct: purchased Eurofins Discovery (DiscoverX KINOMEscan scanMAX)
Procedure: as §1

CSK = target: T6, CSK (Homo sapiens, UniProt P41240)
T6 construct: purchased Eurofins Discovery (DiscoverX KINOMEscan scanMAX)
Procedure: as §1

EIF2AK1 = target: T7, EIF2AK1 (Homo sapiens, UniProt Q9BQI3)
T7 construct: purchased Eurofins Discovery (DiscoverX KINOMEscan scanMAX)
Procedure: as §1

EPHA3 = target: T8, EPHA3 (Homo sapiens, UniProt P29320)
T8 construct: purchased Eurofins Discovery (DiscoverX KINOMEscan scanMAX)
Procedure: as §1

EPHA4 = target: T9, EPHA4 (Homo sapiens, UniProt P54764)
T9 construct: purchased Eurofins Discovery (DiscoverX KINOMEscan scanMAX)
Procedure: as §1

EPHA8 = target: T10, EPHA8 (Homo sapiens, UniProt P29322)
T10 construct: purchased Eurofins Discovery (DiscoverX KINOMEscan scanMAX)
Procedure: as §1

ERBB2 = target: T11, ERBB2 (Homo sapiens, UniProt P04626)
T11 construct: purchased Eurofins Discovery (DiscoverX KINOMEscan scanMAX)
Procedure: as §1

FGFR2 = target: T12, FGFR2 (Homo sapiens, UniProt P21802)
T12 construct: purchased Eurofins Discovery (DiscoverX KINOMEscan scanMAX)
Procedure: as §1

FGFR4 = target: T13, FGFR4 (Homo sapiens, UniProt P22455)
T13 construct: purchased Eurofins Discovery (DiscoverX KINOMEscan scanMAX)
Procedure: as §1

FLT3(D835Y) = target: T14, FLT3(D835Y) (Homo sapiens, UniProt P36888, D835Y)
T14 construct: purchased Eurofins Discovery (DiscoverX KINOMEscan scanMAX)
Procedure: as §1

FLT4 = target: T15, FLT4 (Homo sapiens, UniProt P35916)
T15 construct: purchased Eurofins Discovery (DiscoverX KINOMEscan scanMAX)
Procedure: as §1

HIPK3 = target: T16, HIPK3 (Homo sapiens, UniProt Q9H422)
T16 construct: purchased Eurofins Discovery (DiscoverX KINOMEscan scanMAX)
Procedure: as §1

HPK1 = target: T17, HPK1 (Homo sapiens, UniProt Q92918)
T17 construct: purchased Eurofins Discovery (DiscoverX KINOMEscan scanMAX)
Procedure: as §1

HUNK = target: T18, HUNK (Homo sapiens, UniProt P57058)
T18 construct: purchased Eurofins Discovery (DiscoverX KINOMEscan scanMAX)
Procedure: as §1

MAP4K5 = target: T19, MAP4K5 (Homo sapiens, UniProt Q9Y4K4)
T19 construct: purchased Eurofins Discovery (DiscoverX KINOMEscan scanMAX)
Procedure: as §1

MARK1 = target: T20, MARK1 (Homo sapiens, UniProt Q9P0L2)
T20 construct: purchased Eurofins Discovery (DiscoverX KINOMEscan scanMAX)
Procedure: as §1

MELK = target: T21, MELK (Homo sapiens, UniProt Q14680)
T21 construct: purchased Eurofins Discovery (DiscoverX KINOMEscan scanMAX)
Procedure: as §1

MET(M1250T) = target: T22, MET(M1250T) (Homo sapiens, UniProt P08581, M1250T)
T22 construct: purchased Eurofins Discovery (DiscoverX KINOMEscan scanMAX)
Procedure: as §1

MST1R = target: T23, MST1R (Homo sapiens, UniProt Q04912)
T23 construct: purchased Eurofins Discovery (DiscoverX KINOMEscan scanMAX)
Procedure: as §1

MYLK2 = target: T24, MYLK2 (Homo sapiens, UniProt Q9H1R3)
T24 construct: purchased Eurofins Discovery (DiscoverX KINOMEscan scanMAX)
Procedure: as §1

PIK3C2B = target: T25, PIK3C2B (Homo sapiens, UniProt O00750)
T25 construct: purchased Eurofins Discovery (DiscoverX KINOMEscan scanMAX)
Procedure: as §1

PIK4CB = target: T26, PIK4CB (Homo sapiens, UniProt Q9UBF8)
T26 construct: purchased Eurofins Discovery (DiscoverX KINOMEscan scanMAX)
Procedure: as §1

RET(V804L) = target: T27, RET(V804L) (Homo sapiens, UniProt P07949, V804L)
T27 construct: purchased Eurofins Discovery (DiscoverX KINOMEscan scanMAX)
Procedure: as §1

RIOK2 = target: T28, RIOK2 (Homo sapiens, UniProt Q9BVS4)
T28 construct: purchased Eurofins Discovery (DiscoverX KINOMEscan scanMAX)
Procedure: as §1

ROCK1 = target: T29, ROCK1 (Homo sapiens, UniProt Q13464)
T29 construct: purchased Eurofins Discovery (DiscoverX KINOMEscan scanMAX)
Procedure: as §1

[1] = target: T30, RPS6KA4(Kin.Dom.2-C-terminal) (Homo sapiens, UniProt O75676)
T30 construct: RPS6KA4(Kin.Dom.2-C-terminal); purchased Eurofins Discovery (DiscoverX KINOMEscan scanMAX)
Procedure: as §1

[2] = target: T31, RSK2(Kin.Dom.1-N-terminal) (Homo sapiens, UniProt P51812)
T31 construct: RSK2(Kin.Dom.1-N-terminal); purchased Eurofins Discovery (DiscoverX KINOMEscan scanMAX)
Procedure: as §1

STK35 = target: T32, STK35 (Homo sapiens, UniProt Q8TDR2)
T32 construct: purchased Eurofins Discovery (DiscoverX KINOMEscan scanMAX)
Procedure: as §1

ULK3 = target: T33, ULK3 (Homo sapiens, UniProt Q6PHR2)
T33 construct: purchased Eurofins Discovery (DiscoverX KINOMEscan scanMAX)
Procedure: as §1

T2 sequence (Q13705 19-512): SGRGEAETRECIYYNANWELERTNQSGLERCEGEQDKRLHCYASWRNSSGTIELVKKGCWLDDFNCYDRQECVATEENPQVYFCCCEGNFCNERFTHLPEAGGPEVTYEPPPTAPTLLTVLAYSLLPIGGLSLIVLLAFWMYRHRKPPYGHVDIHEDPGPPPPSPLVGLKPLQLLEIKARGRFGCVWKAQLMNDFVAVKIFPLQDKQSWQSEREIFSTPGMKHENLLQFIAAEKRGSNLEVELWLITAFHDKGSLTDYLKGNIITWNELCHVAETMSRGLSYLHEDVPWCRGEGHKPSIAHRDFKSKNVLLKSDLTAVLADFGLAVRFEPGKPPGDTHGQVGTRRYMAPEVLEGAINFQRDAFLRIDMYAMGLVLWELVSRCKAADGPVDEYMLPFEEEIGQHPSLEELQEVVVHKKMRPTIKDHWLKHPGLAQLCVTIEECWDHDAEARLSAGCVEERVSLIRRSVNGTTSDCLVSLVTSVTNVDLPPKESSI
T30 sequence (O75676 372-772 limits assumed): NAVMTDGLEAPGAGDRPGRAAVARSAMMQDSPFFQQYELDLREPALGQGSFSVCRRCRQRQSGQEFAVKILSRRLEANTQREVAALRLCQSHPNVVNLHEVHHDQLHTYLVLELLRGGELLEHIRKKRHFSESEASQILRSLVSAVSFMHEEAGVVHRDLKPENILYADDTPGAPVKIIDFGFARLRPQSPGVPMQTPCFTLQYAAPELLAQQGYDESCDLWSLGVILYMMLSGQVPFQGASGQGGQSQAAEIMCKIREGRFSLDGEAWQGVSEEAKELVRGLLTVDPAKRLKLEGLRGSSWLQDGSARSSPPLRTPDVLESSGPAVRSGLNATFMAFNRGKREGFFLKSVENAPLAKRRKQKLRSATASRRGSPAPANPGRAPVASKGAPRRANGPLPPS
T16 sequence (Q9H422 whole entry): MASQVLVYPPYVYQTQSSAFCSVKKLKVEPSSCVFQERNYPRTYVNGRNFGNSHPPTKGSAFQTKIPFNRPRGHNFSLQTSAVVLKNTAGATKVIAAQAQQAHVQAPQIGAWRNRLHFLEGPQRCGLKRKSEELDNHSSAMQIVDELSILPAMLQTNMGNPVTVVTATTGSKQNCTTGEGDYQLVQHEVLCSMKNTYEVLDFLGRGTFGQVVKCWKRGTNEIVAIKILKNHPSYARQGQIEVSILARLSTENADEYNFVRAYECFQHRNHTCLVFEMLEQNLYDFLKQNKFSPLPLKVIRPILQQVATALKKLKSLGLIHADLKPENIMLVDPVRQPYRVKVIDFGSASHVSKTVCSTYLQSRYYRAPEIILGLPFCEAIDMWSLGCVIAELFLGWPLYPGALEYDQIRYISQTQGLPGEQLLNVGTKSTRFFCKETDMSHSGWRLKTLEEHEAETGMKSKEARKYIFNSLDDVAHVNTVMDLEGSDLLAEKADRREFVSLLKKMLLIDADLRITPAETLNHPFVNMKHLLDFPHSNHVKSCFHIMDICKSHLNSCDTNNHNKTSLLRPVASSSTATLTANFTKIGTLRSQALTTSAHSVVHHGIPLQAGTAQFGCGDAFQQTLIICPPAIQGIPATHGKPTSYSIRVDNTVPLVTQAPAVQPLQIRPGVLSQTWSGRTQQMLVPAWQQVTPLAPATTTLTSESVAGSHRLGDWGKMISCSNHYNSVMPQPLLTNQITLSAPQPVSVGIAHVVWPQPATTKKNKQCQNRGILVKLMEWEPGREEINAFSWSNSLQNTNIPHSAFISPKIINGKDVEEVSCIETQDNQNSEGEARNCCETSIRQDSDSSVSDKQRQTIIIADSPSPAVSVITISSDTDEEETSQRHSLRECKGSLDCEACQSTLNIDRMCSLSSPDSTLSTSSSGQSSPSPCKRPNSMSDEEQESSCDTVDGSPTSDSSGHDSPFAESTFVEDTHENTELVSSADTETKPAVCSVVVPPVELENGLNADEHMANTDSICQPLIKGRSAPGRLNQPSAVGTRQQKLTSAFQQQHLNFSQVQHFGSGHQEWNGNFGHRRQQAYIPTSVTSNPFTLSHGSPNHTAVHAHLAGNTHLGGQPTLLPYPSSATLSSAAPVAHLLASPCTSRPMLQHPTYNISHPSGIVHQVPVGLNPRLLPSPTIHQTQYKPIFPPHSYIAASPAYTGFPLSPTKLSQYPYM
T10 sequence (P29322 28-1005): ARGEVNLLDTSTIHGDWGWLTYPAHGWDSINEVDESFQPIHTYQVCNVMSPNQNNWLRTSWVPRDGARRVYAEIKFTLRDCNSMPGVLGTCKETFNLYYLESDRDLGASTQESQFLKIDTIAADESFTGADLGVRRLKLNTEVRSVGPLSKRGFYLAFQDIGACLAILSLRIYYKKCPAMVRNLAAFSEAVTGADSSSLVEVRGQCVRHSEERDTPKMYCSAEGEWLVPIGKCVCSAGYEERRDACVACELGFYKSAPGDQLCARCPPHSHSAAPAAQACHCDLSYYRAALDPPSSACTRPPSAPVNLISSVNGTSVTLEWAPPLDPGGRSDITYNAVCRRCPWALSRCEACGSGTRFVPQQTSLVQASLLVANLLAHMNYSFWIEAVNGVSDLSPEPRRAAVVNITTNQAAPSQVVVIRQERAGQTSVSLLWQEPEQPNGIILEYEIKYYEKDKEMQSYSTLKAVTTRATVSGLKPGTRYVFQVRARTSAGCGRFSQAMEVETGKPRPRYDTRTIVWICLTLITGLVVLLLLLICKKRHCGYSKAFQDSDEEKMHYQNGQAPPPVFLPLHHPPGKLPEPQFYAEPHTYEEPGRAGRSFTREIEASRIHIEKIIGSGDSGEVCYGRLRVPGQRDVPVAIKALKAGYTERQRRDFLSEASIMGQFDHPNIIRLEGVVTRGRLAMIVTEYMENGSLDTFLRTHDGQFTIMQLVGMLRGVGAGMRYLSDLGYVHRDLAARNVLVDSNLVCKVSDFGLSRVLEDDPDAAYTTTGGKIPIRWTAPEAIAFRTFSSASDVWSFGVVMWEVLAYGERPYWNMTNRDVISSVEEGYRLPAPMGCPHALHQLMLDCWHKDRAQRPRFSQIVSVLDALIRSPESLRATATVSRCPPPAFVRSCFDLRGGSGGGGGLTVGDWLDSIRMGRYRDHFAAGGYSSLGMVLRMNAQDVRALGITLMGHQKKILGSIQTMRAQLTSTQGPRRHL
T33 sequence (Q6PHR2 whole entry): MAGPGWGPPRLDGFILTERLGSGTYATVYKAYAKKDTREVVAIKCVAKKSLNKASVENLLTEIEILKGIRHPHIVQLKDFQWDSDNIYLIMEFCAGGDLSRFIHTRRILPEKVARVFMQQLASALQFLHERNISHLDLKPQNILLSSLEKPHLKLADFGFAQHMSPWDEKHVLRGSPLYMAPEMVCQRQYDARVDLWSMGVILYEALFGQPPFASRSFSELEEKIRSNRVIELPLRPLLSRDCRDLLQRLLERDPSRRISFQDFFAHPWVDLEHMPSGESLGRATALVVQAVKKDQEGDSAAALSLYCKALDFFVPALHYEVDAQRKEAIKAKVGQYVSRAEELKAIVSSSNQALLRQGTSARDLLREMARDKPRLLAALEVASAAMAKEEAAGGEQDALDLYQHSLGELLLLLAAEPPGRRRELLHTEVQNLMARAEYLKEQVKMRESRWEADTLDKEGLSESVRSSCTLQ
T13 sequence (P22455 22-802): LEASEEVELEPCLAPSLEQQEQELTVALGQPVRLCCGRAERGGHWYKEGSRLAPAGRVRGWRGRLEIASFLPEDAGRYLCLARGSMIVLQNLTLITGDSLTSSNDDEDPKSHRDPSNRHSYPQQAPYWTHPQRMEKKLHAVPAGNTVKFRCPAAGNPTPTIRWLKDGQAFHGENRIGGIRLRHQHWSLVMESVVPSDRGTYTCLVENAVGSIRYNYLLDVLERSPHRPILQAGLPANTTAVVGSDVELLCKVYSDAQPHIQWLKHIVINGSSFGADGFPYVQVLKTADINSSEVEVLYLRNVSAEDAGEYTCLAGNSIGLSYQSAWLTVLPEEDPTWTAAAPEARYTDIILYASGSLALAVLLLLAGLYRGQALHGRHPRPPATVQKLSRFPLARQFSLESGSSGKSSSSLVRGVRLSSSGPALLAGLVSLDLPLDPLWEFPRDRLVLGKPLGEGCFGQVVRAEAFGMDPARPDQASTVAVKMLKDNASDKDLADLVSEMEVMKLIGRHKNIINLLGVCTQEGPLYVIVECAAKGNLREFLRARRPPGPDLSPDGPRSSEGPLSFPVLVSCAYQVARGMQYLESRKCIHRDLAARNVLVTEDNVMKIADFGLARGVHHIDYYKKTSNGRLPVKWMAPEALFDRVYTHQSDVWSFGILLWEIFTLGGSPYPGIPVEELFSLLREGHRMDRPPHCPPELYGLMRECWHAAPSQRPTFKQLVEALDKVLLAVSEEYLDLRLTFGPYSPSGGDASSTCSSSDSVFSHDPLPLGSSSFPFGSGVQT
T4 sequence (Q06187 whole entry): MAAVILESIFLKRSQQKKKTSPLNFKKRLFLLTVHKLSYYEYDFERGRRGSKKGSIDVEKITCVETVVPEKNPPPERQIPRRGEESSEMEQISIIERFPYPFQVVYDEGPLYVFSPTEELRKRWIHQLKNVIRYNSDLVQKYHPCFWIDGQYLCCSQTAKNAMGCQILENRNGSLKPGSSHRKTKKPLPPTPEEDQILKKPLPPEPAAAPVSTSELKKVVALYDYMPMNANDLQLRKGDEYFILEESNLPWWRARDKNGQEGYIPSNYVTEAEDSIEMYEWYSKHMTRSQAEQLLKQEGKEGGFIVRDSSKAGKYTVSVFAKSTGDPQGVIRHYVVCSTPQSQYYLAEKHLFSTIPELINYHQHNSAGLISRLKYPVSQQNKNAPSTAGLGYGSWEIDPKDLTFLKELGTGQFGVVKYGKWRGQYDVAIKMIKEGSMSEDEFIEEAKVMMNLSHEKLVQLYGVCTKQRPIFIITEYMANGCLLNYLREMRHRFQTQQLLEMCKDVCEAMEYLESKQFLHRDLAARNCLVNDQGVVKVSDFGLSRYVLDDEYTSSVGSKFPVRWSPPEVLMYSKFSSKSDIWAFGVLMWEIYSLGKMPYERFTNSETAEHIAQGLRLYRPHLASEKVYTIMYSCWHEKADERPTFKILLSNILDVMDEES

Cc1cc(Nc2ccc(F)c(CC3(C(=O)N4CCC(F)(CN5CCN(c6ccc(N7CCC(=O)NC7=O)cn6)CC5)CC4)CCN(Cc4cccc(Cl)c4F)CC3)n2)n[nH]1 [SK5527]
remaining binding at 0.1 µM (ACVR1; 100 nM): 68% | remaining binding at 1 µM (ACVR1; 1000 nM): 70% | remaining binding at 0.1 µM (ACVR2B; 100 nM): 100% | remaining binding at 1 µM (ACVR2B; 1000 nM): 87% | remaining binding at 0.1 µM (ALK; 100 nM): 73% | remaining binding at 1 µM (ALK; 1000 nM): 62% | remaining binding at 0.1 µM (BTK; 100 nM): 88% | remaining binding at 1 µM (BTK; 1000 nM): 80% | remaining binding at 0.1 µM (CAMK1; 100 nM): 100% | remaining binding at 1 µM (CAMK1; 1000 nM): 98% | remaining binding at 0.1 µM (CSK; 100 nM): 100% | remaining binding at 1 µM (CSK; 1000 nM): 100% | remaining binding at 0.1 µM (EIF2AK1; 100 nM): 81% | remaining binding at 1 µM (EIF2AK1; 1000 nM): 70% | remaining binding at 0.1 µM (EPHA3; 100 nM): 99% | remaining binding at 1 µM (EPHA3; 1000 nM): 71% | remaining binding at 0.1 µM (EPHA4; 100 nM): 91% | remaining binding at 1 µM (EPHA4; 1000 nM): 100% | remaining binding at 0.1 µM (EPHA8; 100 nM): 91% | remaining binding at 1 µM (EPHA8; 1000 nM): 81% | remaining binding at 0.1 µM (ERBB2; 100 nM): 100% | remaining binding at 1 µM (ERBB2; 1000 nM): 100% | remaining binding at 0.1 µM (FGFR2; 100 nM): 100% | remaining binding at 1 µM (FGFR2; 1000 nM): 90% | remaining binding at 0.1 µM (FGFR4; 100 nM): 89% | remaining binding at 1 µM (FGFR4; 1000 nM): 89% | remaining binding at 0.1 µM (FLT3(D835Y); 100 nM): 69% | remaining binding at 1 µM (FLT3(D835Y); 1000 nM): 72% | remaining binding at 0.1 µM (FLT4; 100 nM): 76% | remaining binding at 1 µM (FLT4; 1000 nM): 40% | remaining binding at 0.1 µM (HIPK3; 100 nM): 100% | remaining binding at 1 µM (HIPK3; 1000 nM): 66% | remaining binding at 0.1 µM (HPK1; 100 nM): 100% | remaining binding at 1 µM (HPK1; 1000 nM): 100% | remaining binding at 0.1 µM (HUNK; 100 nM): 93% | remaining binding at 1 µM (HUNK; 1000 nM): 100% | remaining binding at 0.1 µM (MAP4K5; 100 nM): 100% | remaining binding at 1 µM (MAP4K5; 1000 nM): 100% | remaining binding at 0.1 µM (MARK1; 100 nM): 100% | remaining binding at 1 µM (MARK1; 1000 nM): 100% | remaining binding at 0.1 µM (MELK; 100 nM): 99% | remaining binding at 1 µM (MELK; 1000 nM): 87% | remaining binding at 0.1 µM (MET(M1250T); 100 nM): 85% | remaining binding at 1 µM (MET(M1250T); 1000 nM): 80% | remaining binding at 0.1 µM (MST1R; 100 nM): 100% | remaining binding at 1 µM (MST1R; 1000 nM): 100% | remaining binding at 0.1 µM (MYLK2; 100 nM): 100% | remaining binding at 1 µM (MYLK2; 1000 nM): 100% | remaining binding at 0.1 µM (PIK3C2B; 100 nM): 99% | remaining binding at 1 µM (PIK3C2B; 1000 nM): 91% | remaining binding at 0.1 µM (PIK4CB; 100 nM): 73% | remaining binding at 1 µM (PIK4CB; 1000 nM): 65% | remaining binding at 0.1 µM (RET(V804L); 100 nM): 92% | remaining binding at 1 µM (RET(V804L); 1000 nM): 38% | remaining binding at 0.1 µM (RIOK2; 100 nM): 93% | remaining binding at 1 µM (RIOK2; 1000 nM): 64% | remaining binding at 0.1 µM (ROCK1; 100 nM): 96% | remaining binding at 1 µM (ROCK1; 1000 nM): 81% | remaining binding at 0.1 µM ([1]; 100 nM): 85% | remaining binding at 1 µM ([1]; 1000 nM): 77% | remaining binding at 0.1 µM ([2]; 100 nM): 80% | remaining binding at 1 µM ([2]; 1000 nM): 68% | remaining binding at 0.1 µM (STK35; 100 nM): 99% | remaining binding at 1 µM (STK35; 1000 nM): 80% | remaining binding at 0.1 µM (ULK3; 100 nM): 85% | remaining binding at 1 µM (ULK3; 1000 nM): 86%
